Data on 15 compounds can be found in ChEMBL document CHEMBL1201862, “PubChem BioAssay data set” (2004).

The structures appear in SMILES notation. Activity calls are given as the source filed them. Where only a bound is given, the exact number is not on record here.

T1 sequence (P11940 whole entry): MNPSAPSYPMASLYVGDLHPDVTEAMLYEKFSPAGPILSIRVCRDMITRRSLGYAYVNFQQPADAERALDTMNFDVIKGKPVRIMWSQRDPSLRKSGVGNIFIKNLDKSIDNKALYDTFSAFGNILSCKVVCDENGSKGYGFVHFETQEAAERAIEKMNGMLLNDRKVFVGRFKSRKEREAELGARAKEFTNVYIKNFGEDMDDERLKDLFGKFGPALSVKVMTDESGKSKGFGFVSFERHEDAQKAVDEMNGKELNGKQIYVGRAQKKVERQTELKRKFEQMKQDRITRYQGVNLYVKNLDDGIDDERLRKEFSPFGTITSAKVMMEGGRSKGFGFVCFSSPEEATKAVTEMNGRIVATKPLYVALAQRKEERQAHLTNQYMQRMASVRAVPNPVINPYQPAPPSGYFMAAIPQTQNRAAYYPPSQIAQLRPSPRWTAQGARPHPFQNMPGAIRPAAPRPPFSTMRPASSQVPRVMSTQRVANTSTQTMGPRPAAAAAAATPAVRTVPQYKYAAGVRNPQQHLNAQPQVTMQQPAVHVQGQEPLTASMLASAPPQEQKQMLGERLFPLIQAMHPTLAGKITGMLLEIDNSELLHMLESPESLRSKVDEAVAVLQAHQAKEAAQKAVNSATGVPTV

System in the first assay: not listed separately
Kind of assay: inhibitors of HIV Env-driven cell fusion, dose response, cherry-pick (AID 652057). The class given is functional, cell-based.
Settings: not given
One may read the AC50 as the concentration at which the activity in the assay is half-maximal. Regarding `CCc1ccc(-c2cn3nc(C)c(C)nc3n2)cc1`, the AC50 is 3.94 µM (active).

Consider `CC(C)(COC(=O)C(c1ccccc1)c1ccccc1)CN1CCOCC1`, for which the AC50 was 4.96 µM (active).

With `O=C(CCCOc1ccc(Cl)cc1Cl)Nc1cc(S(=O)(=O)N2CCOCC2)ccc1N1CCOCC1`, the AC50 was 3.23 µM (active).

In the case of `Cc1ccc(S(=O)(=O)N2CCCCC2)cc1C(=O)NCCC1=CCCCC1`, the AC50 is 3.71 µM (active).

In the case of `C[C@H](CO)N1C[C@H](C)[C@H](CN(C)C(=O)Cc2ccccc2)OCc2ccccc2-c2c(n(C)c3ccccc23)C1=O`, the AC50 is < 0.26 µM (active).

On to `CC(C)C[C@@H](CN(C)N=O)N(C[C@H](Cc1ccccc1)N(CCc1ccccc1)N=O)N=O`, for which the AC50 is 4.34 µM (active).

Take `CC(C)[C@H](CN(N=O)[C@@H](Cc1ccccc1)CN(C)N=O)N(CCc1ccccc1)N=O`: the half-maximal activity concentration (AC50) was 5.66 µM (active).

As to `CCCOc1ccc2ccccc2c1/C=N/n1cnnc1`, the AC50 is 24.8 µM (active).

System in another assay: not listed separately
Kind of assay: C. albicans growth with fluconazole, confirmation, fluorescence, retest (AID 2467).
Settings: not given
The class given is functional, cell-based.
For orientation: EC50 means the concentration needed to bring the measured effect to its halfway point. For `COc1ccc(C2Nc3ccccc3C(=O)N2O)cc1OC` (stereo not drawn), the EC50 is reported as > 38 µM (not active).

With `C=CCn1c(=N)n(CC(=O)c2cccc([N+](=O)[O-])c2)c2ccccc21`, the EC50 is > 38 µM (not active).

Take `Cc1ccc(Nc2nnc(C3C(=O)N(C)C4(C)CC3c3cc(Br)ccc3O4)s2)cc1` (stereo not drawn): the EC50 was 4.45 µM (active).

A further assay has as its target T1, Polyadenylate-binding protein 1 (Homo sapiens, UniProt P11940). The assay is described as follows: PABP1 MLLE–PAM2 binding inhibitor potency, dose response, biochemical, fluorescence polarization, FITC-PAM2 peptide (AID 602259). The class given is functional. Particulars: read-out: IC50_Mean. A general note: Polarisation of emitted light reports the rotation of a fluorescent probe.
Turning to `CC(=O)c1ccc(NC(=S)Nc2ccc(Br)c(Cl)c2)cc1`, the IC50 is > 66 µM (inactive).

Another assay has as its target T1, Polyadenylate-binding protein 1. The assay is described as follows: PABP1 MLLE–PAM2 interaction inhibitors, dose response, miRNA deadenylation inhibitor project, biochemical, fluorescence polarization, Cy5-PAM2 peptide, secondary (AID 602260). The format is functional. The conditions noted are these: read-out: IC50_Mean.
`CC(=O)c1ccc(NC(=S)Nc2ccc(Br)c(Cl)c2)cc1`: the IC50 was > 66 µM (inactive).

System in a further assay: not listed separately
The assay is described as follows: ZM109 Env clade C HIV-1 fusion inhibitors, dose response, HeLa effector, CEM target cells, luciferase, cherry-pick (AID 652058). The class given is functional, cell-based.
Settings: not given
`CCc1ccc(-c2cn3nc(C)c(C)nc3n2)cc1`: the AC50 is 29.3 µM (active).

Turning to `CC(C)(COC(=O)C(c1ccccc1)c1ccccc1)CN1CCOCC1`, the AC50 was 2.42 µM (active).

On to `O=C(CCCOc1ccc(Cl)cc1Cl)Nc1cc(S(=O)(=O)N2CCOCC2)ccc1N1CCOCC1`, for which the AC50 was 11.8 µM (active).

On to `Cc1ccc(S(=O)(=O)N2CCCCC2)cc1C(=O)NCCC1=CCCCC1`, for which the AC50 is 5.36 µM (active).

Regarding `C[C@H](CO)N1C[C@H](C)[C@H](CN(C)C(=O)Cc2ccccc2)OCc2ccccc2-c2c(n(C)c3ccccc23)C1=O`, the AC50 is < 0.26 µM (active).

For the compound `CC(C)C[C@@H](CN(C)N=O)N(C[C@H](Cc1ccccc1)N(CCc1ccccc1)N=O)N=O`, the AC50 was 5.62 µM (active).

In the case of `CC(C)[C@H](CN(N=O)[C@@H](Cc1ccccc1)CN(C)N=O)N(CCc1ccccc1)N=O`, the AC50 is 12.3 µM (active).

For the compound `CCCOc1ccc2ccccc2c1/C=N/n1cnnc1`, the AC50 is 4.27 µM (active).

System in a further assay: not listed separately
Kind of assay: off-target signal loss in HeLa-CEM21 co-culture – HeLa F-luc CTL cells, cherry-picked, counter-screen for HIV-1 Env fusion inhibitor project, dose response (AID 652040).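 Note: potency for signal decrease marking cytotoxic or nonspecific inhibition.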 The class given is functional, cell-based.
Settings: not given
For the compound `CCc1ccc(-c2cn3nc(C)c(C)nc3n2)cc1`, the AC50 is 11 µM (active).

`CC(C)(COC(=O)C(c1ccccc1)c1ccccc1)CN1CCOCC1`: the concentration at half-maximal activity (AC50) is 4.01 µM (active).

For `O=C(CCCOc1ccc(Cl)cc1Cl)Nc1cc(S(=O)(=O)N2CCOCC2)ccc1N1CCOCC1`, the AC50 is 6.33 µM (active).

Regarding `Cc1ccc(S(=O)(=O)N2CCCCC2)cc1C(=O)NCCC1=CCCCC1`, the AC50 was 7.03 µM (active).

With `CC(C)C[C@@H](CN(C)N=O)N(C[C@H](Cc1ccccc1)N(CCc1ccccc1)N=O)N=O`, the AC50 was 7.74 µM (active).

For the compound `CC(C)[C@H](CN(N=O)[C@@H](Cc1ccccc1)CN(C)N=O)N(CCc1ccccc1)N=O`, the AC50 is 10.8 µM (active).

For the compound `CCCOc1ccc2ccccc2c1/C=N/n1cnnc1`, the AC50 is 25.6 µM (active).

A further assay deals with T2, Carboxy-terminal domain RNA polymerase II polypeptide A small phosphatase 1 (Homo sapiens, UniProt Q9GZU7).
T2 sequence (Q9GZU7 whole entry): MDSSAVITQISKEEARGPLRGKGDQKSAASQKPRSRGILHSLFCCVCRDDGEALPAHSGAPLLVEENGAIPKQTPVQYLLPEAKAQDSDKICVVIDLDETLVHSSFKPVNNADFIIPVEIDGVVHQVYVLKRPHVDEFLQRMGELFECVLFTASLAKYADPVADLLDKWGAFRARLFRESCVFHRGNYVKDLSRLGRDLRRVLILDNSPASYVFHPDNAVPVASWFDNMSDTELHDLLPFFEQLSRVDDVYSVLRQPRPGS
Kind of assay: inhibitors of CTDSP1, concentration-response testing, biochemical assay, absorbance-based, actives from ultra-high-throughput screening (AID 540297). The class given is functional.
Settings: not given
As to `Cc1ccn2c(=O)nc(SCC(=O)NCc3ccc4c(c3)OCO4)nc2c1`, the IC50 is 10.5 µM (active).

As to `Cc1cccc(C(=O)NC2CCN(C(=O)NCc3ccccc3)CC2)c1`, the IC50 is 12.1 µM (active).

On to `CCCc1cc(=O)oc2cc(OCC(=O)NC(Cc3c[nH]c4ccc(O)cc34)C(=O)O)c(Cl)cc12` (stereo not drawn), for which the IC50 is 32.7 µM (active).

System in the next assay: not listed separately
The assay is described as follows: inhibitors of clade B AD8 Env fusion, dose response, cell-based, cherry-pick (AID 652062).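 Note: luciferase signal from cell-cell fusion driven by HIV-1 clade B AD8 Env; potency is for inhibitors of fusion seen as a drop in luminescence.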 The class given is functional.
Settings: not given
Turning to `CCc1ccc(-c2cn3nc(C)c(C)nc3n2)cc1`, the AC50 was 6.35 µM (active).

On to `CC(C)(COC(=O)C(c1ccccc1)c1ccccc1)CN1CCOCC1`, for which the AC50 is 1.83 µM (active).

On to `O=C(CCCOc1ccc(Cl)cc1Cl)Nc1cc(S(=O)(=O)N2CCOCC2)ccc1N1CCOCC1`, for which the AC50 is 15.8 µM (active).

For `Cc1ccc(S(=O)(=O)N2CCCCC2)cc1C(=O)NCCC1=CCCCC1`, the AC50 is 17.1 µM (active).

Consider `C[C@H](CO)N1C[C@H](C)[C@H](CN(C)C(=O)Cc2ccccc2)OCc2ccccc2-c2c(n(C)c3ccccc23)C1=O`, for which the AC50 was < 0.26 µM (active).

As for `CC(C)C[C@@H](CN(C)N=O)N(C[C@H](Cc1ccccc1)N(CCc1ccccc1)N=O)N=O`, the AC50 was 7.36 µM (active).

For the compound `CC(C)[C@H](CN(N=O)[C@@H](Cc1ccccc1)CN(C)N=O)N(CCc1ccccc1)N=O`, the AC50 was 15.5 µM (active).

As for `CCCOc1ccc2ccccc2c1/C=N/n1cnnc1`, the AC50 is 18.5 µM (active).

Another assay deals with T3, Streptokinase A (Streptococcus pyogenes serotype M1, UniProt P10520).
T3 sequence (P10520 whole entry): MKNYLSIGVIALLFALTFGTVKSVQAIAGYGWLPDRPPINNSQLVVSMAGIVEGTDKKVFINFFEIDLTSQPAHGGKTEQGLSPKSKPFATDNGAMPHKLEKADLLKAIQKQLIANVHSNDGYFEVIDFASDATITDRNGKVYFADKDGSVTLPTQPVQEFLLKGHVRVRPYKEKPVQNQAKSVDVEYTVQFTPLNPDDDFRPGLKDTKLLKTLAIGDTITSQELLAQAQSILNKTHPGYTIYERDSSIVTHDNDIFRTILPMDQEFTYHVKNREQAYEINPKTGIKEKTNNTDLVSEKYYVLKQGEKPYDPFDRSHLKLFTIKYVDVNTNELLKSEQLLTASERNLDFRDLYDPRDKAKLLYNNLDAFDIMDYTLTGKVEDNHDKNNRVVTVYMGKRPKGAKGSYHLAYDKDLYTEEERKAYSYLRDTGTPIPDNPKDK
The assay is described as follows: S. pyogenes streptokinase expression inhibitors, potency, dose response, plasminogen activation absorbance, OD405 (AID 1914).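 Note: secreted streptokinase activity via plasminogen activation per viability signal from cell pellet.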
Settings: not given
The class given is functional, Streptococcus pyogenes M1 GAS.
Regarding `CC(=O)c1ccc(NC(=S)Nc2ccc(Br)c(Cl)c2)cc1`, the EC50 is > 150 µM (not active).

System in another assay: not listed separately
Kind of assay: NIH-3T3 fibroblast cytotoxicity, dose response, cytotoxicity control, cell-based, fluorescence, Alamar Blue, secondary assay (AID 2327).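 Note: NIH-3T3 mouse fibroblasts cultured with fluconazole at 8 µg/mL.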 The class given is functional.
Settings: not given
Background: Resazurin is reduced to fluorescent resorufin, in cell work by metabolically active cells.
In the case of `COc1ccc(C2Nc3ccccc3C(=O)N2O)cc1OC` (stereo not drawn), the EC50 was > 150 µM (inactive).

In the case of `C=CCn1c(=N)n(CC(=O)c2cccc([N+](=O)[O-])c2)c2ccccc21`, the EC50 is 134 µM (active).

For `Cc1ccc(Nc2nnc(C3C(=O)N(C)C4(C)CC3c3cc(Br)ccc3O4)s2)cc1` (stereo not drawn), the EC50 was 19.8 µM (active).
